Test results from patent US9365590B2, “Selenophene-fused aromatic compound and manufacturing method thereof” (Industry-Academia Cooperation Group of Sejong University, priority 2011, dated 2016).

Tested on: not given
Assay: not given
Conditions: not given

| melting point [°C] | Compound |
| --- | --- |
| 78 to 80 | CCOC(=O)c1cc2cc(N)ccc2[se]1 |

Tested on: SK-OV-3 cancer cells
Assay: SK-OV-3 cancer cell proliferation inhibition (WST-1 assay)
Assay type: cell-based
Conditions: Homo sapiens, SK-OV-3, 72 h, read-out: Proliferation inhibition effect (10 nM; %)
Method: Meanwhile, in the present Example, proliferation inhibition effect of the compound in accordance with Comparative Example 1 and the compounds corresponding to Entry 59 to Entry 72 on SK-OV-3 cancer cells were checked, and a result thereof was as shown in [Table 5].
<Experiment Method of Proliferation Inhibition Effect>
SK-OV-3 cells floated on McCoy's 5A Medium in which 10% FBS and 1% P/S were added were inoculated into a 96-Well plate at a concentration of 3×10^4/100 μl per Well and cultured at 37° C. for 4 hours and then, treated with 100 μl of each compound, so that a final concentration of 10 nM was attained. Then, the cells were cultured at 37° C. for 72 hours. As a control, the cells were treated with DMSO as a solvent of the compounds to attain a final concentration of 0.1%. Each well was treated with 10 μl of a WST-1 assay reagent (iTSBio, Korea), and cultured at 37° C. for 2 hours. Then, absorbance was measured with an automatic Microplate Reader at 450 nm. A cell growth inhibition level was calculated by {(A450control−A450compound)/A450control}*100.

| Compound | inhibition at 0.01 µM [%] |
| --- | --- |
| COc1ccc2c(O)cc3c(c2c1)[C@H](CCl)CN3C(=O)c1cc2cc(OC)c(OC)c(OC)c2[nH]1 [Comparative Example 1, seco-MCBI-TMI, reference compound] | 80 |
| COc1ccc2c(O)cc3c(c2c1)[C@H](CCl)CN3C(=O)c1cc2cc([N+](=O)[O-])ccc2[se]1 [Entry 59, seco-MCBI-Nitro-Selenophene] | 74 |
| COc1ccc2[se]c(C(=O)N3C[C@@H](CCl)c4c3cc(O)c3ccc(OC)cc43)cc2c1 [Entry 60, seco-MCBI-Methoxy-Selenophene] | 78 |
| COc1ccc2c(O)cc3c(c2c1)[C@H](CCl)CN3C(=O)c1cc2cc(NC(C)=O)ccc2[se]1 [Entry 61, seco-MCBI-Acetamino-Selenophene] | 81 |
| COc1ccc2c(c1)C13CC1CN(C(=O)c1cc4cc(NC(C)=O)ccc4[se]1)C3=CC2=O (stereo not drawn) [Entry 62] | 86 |
| COc1ccc2c(O)cc3c(c2c1)[C@H](CCl)CN3C(=O)c1cc2sccc2[se]1 [Entry 63] | 78 |
| COc1ccc2cc(C(=O)N3C[C@@H](CCl)c4c3cc(O)c3ccc(OC)cc43)[se]c2c1 [Entry 64] | 85 |
| CCCCCC(=O)Nc1ccc2[se]c(C(=O)N3C[C@@H](CCl)c4c3cc(O)c3ccc(OC)cc43)cc2c1 [Entry 66] | 87 |
| COc1ccc2c(O)cc3c(c2c1)[C@H](CCl)CN3C(=O)c1cc2cc(OC)c(OC)cc2[se]1 [Entry 67] | 78 |
| COc1ccc2c(O)cc3c(c2c1)[C@H](CCl)CN3C(=O)c1cc2cccnc2[se]1 [Entry 68] | 82 |
| COc1ccc2c(O)cc3c(c2c1)[C@H](CCl)CN3C(=O)c1cc2occc2[se]1 [Entry 69] | 73 |
| CCCC(=O)Nc1ccc2[se]c(C(=O)N3C[C@@H](CCl)c4c3cc(O)c3ccccc43)cc2c1 [Entry 71] | 73 |
| CCCC(=O)Nc1ccc2[se]c(C(=O)N3C[C@H]4C[C@@]45C3=CC(=O)c3ccccc35)cc2c1 [Entry 72] | 75 |

Same assay, conditions: Homo sapiens; SK-OV-3 cells, final concentration of 10 nM, cultured 72 hours, WST-1, absorbance 450 nm, vs DMSO control; read-out: Proliferation inhibition effect (10 nM; %)

| Compound | inhibition at 0.01 µM [%] |
| --- | --- |
| COc1cc2cc(C(=O)N3C[C@@H](CCl)c4c3cc(O)c3ccccc43)[nH]c2c(OC)c1OC [Entry 70, CBI-TMI, reference compound] | 80 |
